The record followed here is patent publication US10588893B2, “Ointment containing an oxazole compound” (OTSUKA PHARMACEUTICAL CO., LTD., priority 2015, dated 2020).

Each structure is given as a SMILES string.

A short description of series [1]: Solubility of compound (11) in various solvents. It counts as physicochemical. The text has this:
(§1) To select a solvent for dissolving compound (11) in preparing an ointment containing compound (11), the solubility of compound (11) in various solvents was studied. […] Such a case may result in precipitation of compound (11). Thus, a solvent that has a high solubility of compound (11) but that has […] miscibility (compatibility) with petrolatum or paraffin is relatively preferable for use.

A short description of series [2]: Miscibility of compound (11) solvent solution with petrolatum. It counts as physicochemical.
Excerpt: as §1

On to `CCOc1ccccc1C(=O)NCc1coc(-c2ccc(OC(F)F)c(OC(C)C)c2)n1` [Compound (11)], for which the “solubility of compound (11), in words” value in series [1] (in triacetin and propylene carbonate) is recorded as “relatively high”. The “Solubility (W/W %)” value amounted to 2.6 W/W % in series [1] (solvent: Decyl oleate); 42.6 W/W % in series [1] (solvent: Diethyl sebacate); 40.3 W/W % in series [1] (solvent: Diisopropyl adipate); 5.4 W/W % in series [1] (solvent: Hexyldodecanol); 6.0 W/W % in series [1] (solvent: Isopropyl myristate); 19.8 W/W % in series [1] (solvent: Isostearic acid). Besides, the “Solubility (W/W %)” value in series [1] (solvent: Isostearyl alcohol) stood at 5.1 W/W %; in series [1] (solvent: Liquid Paraffin), 0.1 W/W %; in series [1] (solvent: Olive oil), 6.1 W/W %; in series [1] (solvent: Propylene carbonate) it was 56.9 W/W %; in series [1] (solvent: Triacetine), 32.5 W/W %. In addition, the “Miscibility of Compound (11) Solvent Solution with Petrolatum” value in series [2] (solvent: Decyl oleate), in series [2] (solvent: Diethyl sebacate), in series [2] (solvent: Diisopropyl adipate), in series [2] (solvent: Hexyldodecanol), in series [2] (solvent: Isopropyl myristate) and in series [2] (solvent: Isostearic acid) was “Miscible” in each case. Also, the “Miscibility of Compound (11) Solvent Solution with Petrolatum” value is reported as “Miscible” in series [2] (solvent: Isostearyl alcohol); “Miscible” in series [2] (solvent: Liquid Paraffin); “Miscible” in series [2] (solvent: Olive oil); “Immiscible” in series [2] (solvent: Propylene carbonate); “Immiscible” in series [2] (solvent: Triacetine).
